Here are results for 9 molecules from patent US20250296959A1, “B7-H3 TARGETING PEPTIDES AND CONSTRUCTS THEREOF” (Mariana Oncology Inc., priority 2024, published 2025).

The structures appear in SMILES notation. Starred links: 1 amine or outer side, 2 acyl side, 3 side chain; linkers in the order of their positions; H or OH if unused. Positions of bridges follow the written chain, without caps; N, C: chain ends. Non-standard residues stand in square brackets, D forms with d. Residues, ends and D or L forms follow the SMILES beside them. Groups on a side chain read outwards from the residue. *: point of attachment. Ala(piperidin-4-yl) = O=C([C@H](CC1CCN([*:3])CC1)N[*:1])[*:2]; DOTA = O=C(O)CN1CCN(CC(=O)O)CCN(CC(=O)*)CCN(CC(=O)O)CC1; Phe(4-COOH) = N[C@@H](Cc1ccc(C(=O)O)cc1)C(=O)O; Trp(5-F) = N[C@@H](Cc1c[nH]c2ccc(F)cc12)C(=O)O; PEG8 = NCCOCCOCCOCCOCCOCCOCCOCCOCCC(=O)O; Ala(4-THP) = N[C@@H](CC1CCOCC1)C(=O)O; Val(3-OH) = CC(C)(O)[C@H](N)C(=O)O; mTyr = N[C@@H](Cc1cccc(O)c1)C(=O)O; 4Pal = N[C@@H](Cc1ccncc1)C(=O)O; PEG4 = NCCOCCOCCOCCOCCC(=O)O; Tle = CC(C)(C)[C@H](N)C(=O)O; hLeu = CC(C)CC[C@H](N)C(=O)O; Nle = CCCC[C@H](N)C(=O)O; Sar = CNCC(=O)O

In the assay the target is T1, human 4lg B7-H3 (Homo sapiens, UniProt Q5ZPR3).
T1 sequence (Q5ZPR3 29-534): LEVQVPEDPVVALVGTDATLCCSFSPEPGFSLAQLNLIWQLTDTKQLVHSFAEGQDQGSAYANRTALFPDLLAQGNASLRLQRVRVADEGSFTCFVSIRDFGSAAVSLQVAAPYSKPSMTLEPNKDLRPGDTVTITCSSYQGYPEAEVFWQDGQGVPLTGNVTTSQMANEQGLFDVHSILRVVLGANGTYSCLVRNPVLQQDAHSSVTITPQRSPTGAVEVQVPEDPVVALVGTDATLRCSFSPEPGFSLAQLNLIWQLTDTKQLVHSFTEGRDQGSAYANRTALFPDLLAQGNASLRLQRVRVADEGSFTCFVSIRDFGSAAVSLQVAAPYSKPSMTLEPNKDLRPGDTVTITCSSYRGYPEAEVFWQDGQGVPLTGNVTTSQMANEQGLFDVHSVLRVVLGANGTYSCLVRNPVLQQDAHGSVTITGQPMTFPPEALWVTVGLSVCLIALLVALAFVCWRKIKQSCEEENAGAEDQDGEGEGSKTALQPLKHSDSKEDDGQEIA
Description: Affinity determination by surface plasmon resonance (SPR) to 4Ig B7-H3. To be noted: 4Ig B7-H3.

Setting [1] is: SPR KD—37° C., 37° C. flow cell temperature.
[2] abbreviates: SPR KD—25° C., 25° C. flow cell temperature.

For `CC(=O)N[C@@H](CCC(C)C)C(=O)N[C@@H](Cc1ccc(O)cc1)C(=O)N[C@H]1CSSC[C@@H](C(=O)N[C@@H](Cc2c[nH]c3ccc(F)cc23)C(=O)N[C@@H](Cc2cccc(O)c2)C(=O)N[C@H](C(=O)N[C@H](CCCCNC(=O)CN2CCN(CC(=O)O)CCN(CC(=O)O)CCN(CC(=O)O)CC2)C(=O)O)C(C)(C)O)NC(=O)[C@H](Cc2ccc(O)cc2)NC(=O)[C@H](C(C)C)NC(=O)[C@H](CC(=O)O)NC(=O)[C@H](CC2CCOCC2)NC(=O)[C@H](CC2CCNCC2)NC(=O)CNC(=O)[C@H](C(C)(C)C)NC1=O` [compound 431, Ac-hLeu-Y-C-Tbg-G-PipAla-ThpA-D-V-Y-C-5FW-3OHPhe-hydroxyVal-dLys(DOTA)-COOH] (Ac-[hLeu]YC[Tle]G[Ala(piperidin-4-yl)][Ala(4-THP)]DVYC[Trp(5-F)][mTyr][Val(3-OH)][dK](DOTA)-OH; disulfide 3-11), under setting [1], the equilibrium dissociation constant (Kd) – broadly, a measure of binding affinity in units of concentration – lay within 1 to 10 nM.

Turning to `CCCC[C@H](NC(C)=O)C(=O)N[C@@H](Cc1ccc(O)cc1)C(=O)N[C@H]1CSSC[C@@H](C(=O)N[C@@H](Cc2c[nH]c3ccccc23)C(=O)N[C@@H](Cc2ccccc2)C(=O)N[C@H](C(=O)N[C@H](CCCCNC(=O)CN2CCN(CC(=O)O)CCN(CC(=O)O)CCN(CC(=O)O)CC2)C(N)=O)[C@@H](C)O)NC(=O)[C@H](Cc2ccc(O)cc2)NC(=O)[C@H](C(C)C)NC(=O)[C@H](CC(N)=O)NC(=O)[C@H](Cc2ccc(O)cc2)NC(=O)[C@H](CCCCN)NC(=O)CNC(=O)[C@H](C(C)C)NC1=O` [compound 80, Ac-Nle-Y-C-V-G-K-Y-N-V-Y-C-W-F-Thr-dLys(DOTA)-CONH2] (Ac-[Nle]YCVGKYNVYCWFT[dK](DOTA)-NH2; disulfide 3-11), the Kd under setting [2] is 10 to 100 nM.

As to `CCCC[C@H](NC(=O)CCOCCOCCOCCOCCOCCOCCOCCOCCNC(=O)CN1CCN(CC(=O)O)CCN(CC(=O)O)CCN(CC(=O)O)CC1)C(=O)N[C@@H](Cc1ccc(O)cc1)C(=O)N[C@H]1CSSC[C@@H](C(=O)N[C@@H](Cc2c[nH]c3ccccc23)C(=O)N[C@@H](Cc2ccccc2)C(=O)N[C@H](C(N)=O)[C@@H](C)O)NC(=O)[C@H](Cc2ccc(O)cc2)NC(=O)[C@H](C(C)C)NC(=O)[C@H](CC(=O)O)NC(=O)[C@H](Cc2ccc(O)cc2)NC(=O)[C@H](CCCCN)NC(=O)CNC(=O)[C@H](C(C)C)NC1=O` [compound 94, DOTA-PEG8-Nle-Y-C-V-G-K-Y-D-V-Y-C-W-F-Thr-CONH2] ({DOTA-PEG8}-[Nle]YCVGKYDVYCWFT-NH2; disulfide 3-11), the Kd under setting [2] fell in the range of 10 to 100 nM.

`CC(=O)N[C@@H](CCC(C)C)C(=O)N[C@@H](Cc1ccc(O)cc1)C(=O)N[C@H]1CSSC[C@@H](C(=O)N[C@@H](Cc2c[nH]c3ccc(F)cc23)C(=O)N[C@@H](Cc2ccccc2)C(=O)N[C@H](C(N)=O)C(C)(C)O)NC(=O)[C@H](Cc2ccc(O)cc2)NC(=O)[C@H](C(C)C)NC(=O)[C@H](CC(=O)O)NC(=O)[C@H](CC2CCOCC2)NC(=O)[C@H](CC2CCN(C(=O)CCOCCOCCOCCOCCNC(=O)CN3CCN(CC(=O)O)CCN(CC(=O)O)CCN(CC(=O)O)CC3)CC2)NC(=O)CNC(=O)[C@H](C(C)(C)C)NC1=O` [compound 382, Ac-hLeu-Y-C-Tbg-G-Pip(PEG4-DOTA)Ala-ThpA-D-V-Y-C-5FW-F-hydroxyVal-CONH2] (Ac-[hLeu]YC[Tle]G[Ala(piperidin-4-yl)]([PEG4-DOTA])[Ala(4-THP)]DVYC[Trp(5-F)]F[Val(3-OH)]-NH2; disulfide 3-11): under setting [1], the Kd was 1 to 10 nM.

`CC(C)CC[C@H](NC(=O)CCOCCOCCOCCOCCOCCOCCOCCOCCNC(=O)CN1CCN(CC(=O)O)CCN(CC(=O)O)CCN(CC(=O)O)CC1)C(=O)N[C@@H](Cc1ccc(O)cc1)C(=O)N[C@H]1CSSC[C@@H](C(=O)N[C@@H](Cc2c[nH]c3ccc(F)cc23)C(=O)N[C@@H](Cc2ccccc2)C(=O)N2CCC[C@H]2C(N)=O)NC(=O)[C@H](Cc2ccc(O)cc2)NC(=O)[C@H](C(C)C)NC(=O)[C@H](CC(=O)O)NC(=O)[C@H](Cc2ccc(C(=O)O)cc2)NC(=O)[C@H](CC2CCNCC2)NC(=O)CNC(=O)[C@H](C(C)C)NC1=O` [compound 285, DOTA-PEG8-hLeu-Y-C-V-G-PipAla-4COOHPhe-D-V-Y-C-5FW-F-Pro-CONH2] ({DOTA-PEG8}-[hLeu]YCVG[Ala(piperidin-4-yl)][Phe(4-COOH)]DVYC[Trp(5-F)]FP-NH2; disulfide 3-11) showed a Kd under setting [2] of 1 to 10 nM.

`CC(=O)N[C@@H](CCC(C)C)C(=O)N[C@@H](Cc1ccc(O)cc1)C(=O)N[C@H]1CSSC[C@@H](C(=O)N[C@@H](Cc2c[nH]c3ccc(F)cc23)C(=O)N[C@@H](Cc2ccccc2)C(=O)N[C@H](C(=O)N[C@H](CCCCNC(=O)CN2CCN(CC(=O)O)CCN(CC(=O)O)CCN(CC(=O)O)CC2)C(N)=O)[C@@H](C)O)NC(=O)[C@H](Cc2ccc(O)cc2)NC(=O)[C@H](C(C)C)NC(=O)[C@H](CC(=O)O)NC(=O)[C@H](Cc2ccncc2)NC(=O)[C@H](CCCCN)NC(=O)CNC(=O)[C@H](C(C)C)NC1=O` [compound 240, Ac-hLeu-Y-C-V-G-K-4PyA-D-V-Y-C-5FW-F-Thr-dLys(DOTA)-CONH2] (Ac-[hLeu]YCVGK[4Pal]DVYC[Trp(5-F)]FT[dK](DOTA)-NH2; disulfide 3-11): the Kd under setting [2] was < 1 nM.

In the case of `CCCC[C@H](NC(C)=O)C(=O)N[C@@H](Cc1ccc(O)cc1)C(=O)N[C@H]1CSSC[C@@H](C(=O)N[C@@H](Cc2c[nH]c3ccccc23)C(=O)N[C@@H](Cc2ccccc2)C(=O)N[C@@H](CC2CCNCC2)C(=O)N[C@H](CCCCNC(=O)CN2CCN(CC(=O)O)CCN(CC(=O)O)CCN(CC(=O)O)CC2)C(N)=O)NC(=O)[C@H](Cc2ccc(O)cc2)NC(=O)[C@H](C(C)C)NC(=O)[C@H](CC(=O)O)NC(=O)[C@H](Cc2ccc(O)cc2)NC(=O)[C@H](CCCCN)NC(=O)CNC(=O)[C@H](C(C)C)NC1=O` [compound 89, Ac-Nle-Y-C-V-G-K-Y-D-V-Y-C-W-F-4PipAla-dLys(DOTA)-CONH2] (Ac-[Nle]YCVGKYDVYCWF[Ala(piperidin-4-yl)][dK](DOTA)-NH2; disulfide 3-11), the Kd under setting [2] was 10 to 100 nM.

In turn, `CC(=O)N[C@@H](CCC(C)C)C(=O)N[C@@H](Cc1ccc(O)cc1)C(=O)N[C@H]1CSSC[C@@H](C(=O)N[C@@H](Cc2c[nH]c3ccc(F)cc23)C(=O)N[C@@H](Cc2ccccc2)C(=O)N[C@H](C(=O)N[C@H](CCCCNC(=O)CN2CCN(CC(=O)O)CCN(CC(=O)O)CCN(CC(=O)O)CC2)C(N)=O)[C@@H](C)O)NC(=O)[C@H](Cc2ccc(O)cc2)NC(=O)[C@H](C(C)C)NC(=O)[C@H](CC(=O)O)NC(=O)[C@H](Cc2ccc(O)cc2)NC(=O)[C@H](CCCCN)NC(=O)CN(C)C(=O)[C@H](C(C)(C)C)NC1=O` [compound 78, Ac-hLeu-Y-C-Tbg-Sar-K-Y-D-V-Y-C-5FW-F-Thr-dLys(DOTA)-CONH2] (Ac-[hLeu]YC[Tle][Sar]KYDVYC[Trp(5-F)]FT[dK](DOTA)-NH2; disulfide 3-11) registered a dissociation constant Kd under setting [2] of 1 to 10 nM.

Under setting [2], `CCCC[C@H](NC(C)=O)C(=O)N[C@@H](Cc1ccc(O)cc1)C(=O)N[C@H]1CSSC[C@@H](C(=O)N[C@@H](Cc2c[nH]c3ccccc23)C(=O)N[C@@H](Cc2ccccc2)C(=O)N[C@@H](CO)C(=O)N[C@H](CCCCNC(=O)CN2CCN(CC(=O)O)CCN(CC(=O)O)CCN(CC(=O)O)CC2)C(N)=O)NC(=O)[C@H](Cc2ccc(O)cc2)NC(=O)[C@H](C(C)C)NC(=O)[C@H](CC(=O)O)NC(=O)[C@H](Cc2ccc(O)cc2)NC(=O)[C@H](CCCCN)NC(=O)CNC(=O)[C@H](C(C)C)NC1=O` [compound 92, Ac-Nle-Y-C-V-G-K-Y-D-V-Y-C-W-F-Ser-dLys(DOTA)-CONH2] (Ac-[Nle]YCVGKYDVYCWFS[dK](DOTA)-NH2; disulfide 3-11) gave an equilibrium dissociation constant (Kd) of 1 to 10 nM.
